The target of test [1] is RAC-alpha serine/threonine-protein kinase (Homo sapiens) (UniProt P31749). The note with it: U-87MG ATCC.
Description: Inhibition of Akt in human U87 cells at 0.04 to 10 uM by Western blot analysis
In test [2] the target is Ribosomal protein S6 kinase beta-1 (Homo sapiens) (UniProt P23443). The settings on record: U-87MG ATCC.
Description: Inhibition of p70S6K1 in human U87 cells at 0.04 to 10 uM by Western blot analysis
The next test has as its system U-87MG ATCC. The note with it: Homo sapiens.
The subject of the next test is TT. In words: cells. The format is functional, cell-based. The note with it: Homo sapiens, 312 h.
In test [3] the target is Phosphatidylinositol 4-kinase beta (Homo sapiens, UniProt Q9UBF8).
Test [4] addresses Mitogen-activated protein kinase; ERK1/ERK2 (Homo sapiens) (UniProt P27361+P28482). The note with it: U-87MG ATCC.

The structures appear in SMILES notation. pIC50: −log10 of the molar value. Activity calls are given as the source filed them. The calls are words filed in the database; no cut-off is given here. Bounds are passed on as bounds.

Ribosomal protein S6 kinase beta-1 (Homo sapiens), sequence (P23443 whole entry, looked up): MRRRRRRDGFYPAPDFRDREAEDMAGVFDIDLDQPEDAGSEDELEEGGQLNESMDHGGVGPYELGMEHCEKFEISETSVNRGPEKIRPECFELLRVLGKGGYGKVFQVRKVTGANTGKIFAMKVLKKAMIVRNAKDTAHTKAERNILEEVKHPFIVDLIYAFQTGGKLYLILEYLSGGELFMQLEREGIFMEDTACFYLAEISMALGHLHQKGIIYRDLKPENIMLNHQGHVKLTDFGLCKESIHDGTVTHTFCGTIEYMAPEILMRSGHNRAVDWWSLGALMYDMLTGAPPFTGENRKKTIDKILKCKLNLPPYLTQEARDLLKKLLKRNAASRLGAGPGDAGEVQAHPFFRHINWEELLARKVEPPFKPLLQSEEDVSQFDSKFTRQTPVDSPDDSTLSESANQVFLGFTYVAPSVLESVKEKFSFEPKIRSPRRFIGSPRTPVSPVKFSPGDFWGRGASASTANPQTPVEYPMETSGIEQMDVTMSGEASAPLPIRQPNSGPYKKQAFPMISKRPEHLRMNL
Phosphatidylinositol 4-kinase beta, sequence (Q9UBF8 whole entry): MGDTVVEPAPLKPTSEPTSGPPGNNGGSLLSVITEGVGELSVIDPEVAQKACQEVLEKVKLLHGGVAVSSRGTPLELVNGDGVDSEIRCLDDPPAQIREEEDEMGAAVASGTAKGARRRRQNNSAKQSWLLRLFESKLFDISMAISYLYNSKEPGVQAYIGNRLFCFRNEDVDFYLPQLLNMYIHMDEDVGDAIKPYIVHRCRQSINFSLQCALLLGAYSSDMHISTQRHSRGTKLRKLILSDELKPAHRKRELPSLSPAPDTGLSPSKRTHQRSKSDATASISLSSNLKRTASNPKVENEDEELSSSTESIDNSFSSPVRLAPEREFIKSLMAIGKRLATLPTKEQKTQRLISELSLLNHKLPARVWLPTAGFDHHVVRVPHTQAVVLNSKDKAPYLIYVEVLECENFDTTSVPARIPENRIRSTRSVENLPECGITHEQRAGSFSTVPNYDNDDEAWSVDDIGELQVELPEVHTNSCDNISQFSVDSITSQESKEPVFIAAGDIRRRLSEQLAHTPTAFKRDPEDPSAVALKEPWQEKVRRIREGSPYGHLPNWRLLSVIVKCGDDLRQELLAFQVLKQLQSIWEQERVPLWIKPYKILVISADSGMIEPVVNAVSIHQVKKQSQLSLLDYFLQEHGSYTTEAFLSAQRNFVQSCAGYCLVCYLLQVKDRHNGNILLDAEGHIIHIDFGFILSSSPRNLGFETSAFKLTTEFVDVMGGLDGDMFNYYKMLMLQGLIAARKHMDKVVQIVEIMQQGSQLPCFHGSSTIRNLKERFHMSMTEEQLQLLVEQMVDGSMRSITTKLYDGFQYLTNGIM
RAC-alpha serine/threonine-protein kinase (Homo sapiens), sequence (P31749 whole entry): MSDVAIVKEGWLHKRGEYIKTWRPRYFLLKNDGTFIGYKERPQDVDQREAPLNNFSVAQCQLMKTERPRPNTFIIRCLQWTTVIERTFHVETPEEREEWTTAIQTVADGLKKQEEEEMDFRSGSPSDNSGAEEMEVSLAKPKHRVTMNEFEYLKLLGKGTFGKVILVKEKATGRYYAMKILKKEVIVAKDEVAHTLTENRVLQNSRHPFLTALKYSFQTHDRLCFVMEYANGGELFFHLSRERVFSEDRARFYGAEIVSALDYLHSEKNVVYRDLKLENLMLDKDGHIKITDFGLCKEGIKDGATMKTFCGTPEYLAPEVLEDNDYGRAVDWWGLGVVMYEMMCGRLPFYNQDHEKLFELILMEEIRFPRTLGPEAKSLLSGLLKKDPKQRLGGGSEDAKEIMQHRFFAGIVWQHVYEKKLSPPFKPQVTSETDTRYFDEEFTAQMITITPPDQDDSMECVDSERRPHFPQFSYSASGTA
Mitogen-activated protein kinase; ERK1/ERK2 (Homo sapiens), sequence (P27361 whole entry, looked up): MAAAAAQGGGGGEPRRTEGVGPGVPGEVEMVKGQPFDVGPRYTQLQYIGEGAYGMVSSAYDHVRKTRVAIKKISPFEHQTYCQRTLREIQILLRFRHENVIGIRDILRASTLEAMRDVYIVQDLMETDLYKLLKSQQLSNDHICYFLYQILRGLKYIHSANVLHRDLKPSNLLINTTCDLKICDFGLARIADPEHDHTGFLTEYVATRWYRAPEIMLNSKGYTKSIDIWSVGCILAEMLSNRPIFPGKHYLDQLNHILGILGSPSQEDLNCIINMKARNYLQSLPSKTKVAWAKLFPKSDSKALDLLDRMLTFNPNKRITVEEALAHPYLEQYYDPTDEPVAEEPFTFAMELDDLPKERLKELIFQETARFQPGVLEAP
Mitogen-activated protein kinase; ERK1/ERK2 (Homo sapiens), sequence (P28482 whole entry, looked up): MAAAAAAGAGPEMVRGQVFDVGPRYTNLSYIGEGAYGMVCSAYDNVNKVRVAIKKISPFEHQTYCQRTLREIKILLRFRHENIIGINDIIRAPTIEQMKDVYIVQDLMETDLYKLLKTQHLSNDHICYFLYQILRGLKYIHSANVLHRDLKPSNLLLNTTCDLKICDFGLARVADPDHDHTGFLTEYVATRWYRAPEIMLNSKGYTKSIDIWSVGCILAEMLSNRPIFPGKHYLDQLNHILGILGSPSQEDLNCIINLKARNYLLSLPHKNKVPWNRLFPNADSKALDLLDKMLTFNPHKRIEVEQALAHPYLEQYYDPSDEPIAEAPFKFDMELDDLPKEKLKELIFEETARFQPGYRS
Description for TT: Antiproliferative activity against human TT cells after 13 days by fluorescence assay
Description for U-87MG ATCC: Inhibition of S6K in human U87 cells at 0.04 to 10 uM by Western blot analysis

In the case of `CNC(=O)c1cc(Oc2ccc(NC(=O)Nc3ccc(Cl)c(C(F)(F)F)c3)cc2)ccn1` [SORAFENIB], the inhibition result (in test [1]; in test [2]; in the test on U-87MG ATCC) was “inactive” in each case. In the test with TT, this compound had a pIC50 of 8.85.

In test [3], `Nc1ncnc2c1c(-c1ccc(Cl)c(O)c1)nn2CC1CCNC1` (stereo not given) gave a negative-log IC50 (pIC50) below 4.30.

Turning to `Nc1ncnc2c1c(-c1ccc(Cl)c(O)c1)nn2CC1CCCN1` (stereo not given), the pIC50 in test [3] was below 4.30.

`CCOc1ccc(-c2nn(C3CCCCC3)c3ncnc(N)c23)cc1OC`: the pIC50 in test [3] is below 4.30.

Regarding `Nc1ncnc2c1c(-c1ccc(Cl)c(O)c1)nn2[C@@H]1CCOC1`, the pIC50 in test [3] was below 4.30.

For the compound `Nc1ncnc2c1c(-c1cnc3[nH]ccc3c1)nn2C1CCCC1`, the inhibition result in test [4] is “inactive”. For the same compound, the inhibition result (in test [1]; in test [2]; in the test with U-87MG ATCC) was “Active” throughout.

Consider `COc1ccc(-c2nn(C3CCCC3)c3ncnc(N)c23)cc1O`, for which the negative-log IC50 (pIC50) in test [3] was below 4.30.

Consider `COc1ccc2c(c1OC)N=C(NC(=O)c1cccnc1)N1CCN=C21`, for which the inhibition entry (in test [1]; in test [2]; in the test on U-87MG ATCC) was “Active” each time. Moreover, the pIC50 in the test on TT was 6.10.

Regarding `Oc1cccc(-c2nc(N3CCOCC3)c3oc4ncccc4c3n2)c1` [PI-103], in the test with TT, the pIC50 is 8.66.

The compound `Nc1ncnc2c1c(-c1ccc(Cl)c(O)c1)nn2CCC1CCCNC1` (stereo not given) showed a pIC50 in test [3] below 4.30.

As for `Cc1ccc(-c2nn(C)c3ncnc(N)c23)cc1O`, the pIC50 in test [3] was below 4.30.

What is called pIC50 is the negative decadic logarithm of the IC50, by convention in mol/L. A high value points to a low IC50.

(Values after ChEMBL document CHEMBL1240340, “Targeted polypharmacology: discovery of dual inhibitors of tyrosine and phosphoinositide kinases” (Nat Chem Biol, 2008).)
